Measurements: US7199100B2, “Cyclic peptides, method for preparing and use as angiogenesis inhibitors or activator” (Commissariat a l'Energie Atomique, priority 2000, dated 2007)
Read-outs that look alike come from different tables or passages of the source. Square brackets hold non-standard residues; d marks the D form. Peptide text beside a SMILES is read from it. * marks the point of attachment. OAll = C=CCO*

Columns and labels:
KDR receptor (VEGFR2) = target: T1, KDR receptor (VEGFR2) (Homo sapiens, UniProt P35968); experiment: Inhibition of 125I-VEGF binding to KDR receptor on CHOm VEGFR2 cells; settings: for inhibiting binding of VEGF to the KDR receptor (in words): 125I-VEGF
T1 construct: expressed in transfected cells; host or cells: heparan sulfate deficient Chinese hamster ovary cells (CHOm VEGFR2), VEGFR2 cDNA in psV-7d vector
Method: The P1 to P24 peptides are tested as concerns their property of inhibition of the binding of VEGF to its KDR receptor.
For these tests, heparin sulfate deficient Chinese hamster ovarian cells that are transfected with an expression vector containing VEGFR2cDnA (CHOm VEGFR2 cells) are used.
The CHOm VEGFR2 cells are routinely cultured in Dulbecco modified Eagle medium and supplemented with 10% (v/v) fetal calf serum (FCS), 50 U/ml penicillin, 50 μg/ml streptomycin, 1 mg/ml glucose and 2 mM L-glutamine at 37° C. in a 5% CO2 atmosphere.
The subconfluent flasks are transferred at 4° C. […] At the end of the incubation period, the cells are washed 3 times using iced PBS and solubized in 1 mL of buffer with 2% Triton X 100, 10% glycol, 1 mg/mL bovine serum albumin BSA. The radioactivity rate bound to the cells is counted in an MR-250 Kontron gamma counter. […] Specific binding is calculated by subtracting non-specific binding from total binding.
These assays are continued using the cyclopeptides of interest and two linear peptides as controls for an inhibition analysis as a function of dose.

endothelial cells [1] = experiment: VEGF-stimulated endothelial cell migration (monolayer denudation); format: cell-based; settings: 10 ng/mL VEGF
Method: Cellular migration is measured according to the method described by Sato and Rifkin (J. Cell Biol., September, 1988, (107 (3): 1199–205) [17] with modifications. 100,000 endothelial cells are placed in 35 mm culture flasks in DMEM medium containing 10% fetal calf serum. On confluence, the medium is replaced by DMEM medium without serum and the cells are incubated overnight. On the next day, denudation is done artificially in the monolayer using a sterile pipette tip. A series of digital photographs is taken and the border of denudation is marked by a line using the BiocomVisionLab2000 program. The flasks are then rinsed and incubated with 10 ng/mL VEGF in the presence or absence of peptide. After 18 hours of incubation a new series of photographs is taken and the before and after stimulation images are superimposed. The cells situated beyond the border of denudation are counted.

endothelial cells [2] = experiment: VEGF-stimulated endothelial cell proliferation (cell count); format: cell-based; settings: 10 ng/mL of VEGF
Method: Cellular proliferation is measured by cell count. 7,000 endothelial cells are placed in the wells of 24-well plates (Costar) in DMEM medium containing newborn bovine serum. […] Two days later, the cells area once again stimulated by VEGF in the presence or absence of different concentrations of peptide. At the fifth day, the cells are trypsinized and counted using a Coulter counter.

ERK2 (p42) = experiment: VEGF-induced phosphorylation of ERK2 (p42), Western blot, capillary endothelial cells; format: cell-based; settings: p42 and p44 together, 10 ng/mL of VEGF
Method: Phosphorylation of ERK1 (p44) and ERK2 (p42) is measured by Western blot using anti p42/p44 antibodies (New England Biolabs). The capillary endothelial cells are cultivated in DMEM containing 10% newborn bovine serum. Subconfluent cultures are then deprived of serum over a period of 24 hours. The peptides are then added at specific concentrations over 5 minutes to the cells in the presence or absence of 10 ng/mL of VEGF. The cells are then removed from the culture flasks and lysed for 20 minutes over ice in lysis buffer containing […], pH 7.4, 75 mM NaCl, 1 mM EDTA, 1% Nonidet P-40 and 0.01% of SDS. The insoluble material is removed by centrifugation and 50 μg/mL of protein extract are separated by polyacrylamide gel electrophoresis containing sodium dodecyl sulfate (SDS) under denaturing conditions. The proteins are then transferred from the gel onto a nitrocellulose membrane (Amersham Pharmacia Biotech, Orsay) using a transfer apparatus (semi-dry transfer, Bio-Rad, Irvy-sur-Seine, France). […] The results are quantified using the Image Quant program (Molecular Dynamics).
The assays were done as indicated. […] The degree of phosphorylation is estimated after quantification of the signals obtained using autoradiographic films and the results are expressed in percent inhibition relative to the signal obtained using 10 ng/mL of VEGF alone.

[3] = CHOm VEGFR2 cells, 5 ng/mL 125I-VEGF, 2 hours at 4° C.

T1 sequence (P35968 20-1356, species assumed): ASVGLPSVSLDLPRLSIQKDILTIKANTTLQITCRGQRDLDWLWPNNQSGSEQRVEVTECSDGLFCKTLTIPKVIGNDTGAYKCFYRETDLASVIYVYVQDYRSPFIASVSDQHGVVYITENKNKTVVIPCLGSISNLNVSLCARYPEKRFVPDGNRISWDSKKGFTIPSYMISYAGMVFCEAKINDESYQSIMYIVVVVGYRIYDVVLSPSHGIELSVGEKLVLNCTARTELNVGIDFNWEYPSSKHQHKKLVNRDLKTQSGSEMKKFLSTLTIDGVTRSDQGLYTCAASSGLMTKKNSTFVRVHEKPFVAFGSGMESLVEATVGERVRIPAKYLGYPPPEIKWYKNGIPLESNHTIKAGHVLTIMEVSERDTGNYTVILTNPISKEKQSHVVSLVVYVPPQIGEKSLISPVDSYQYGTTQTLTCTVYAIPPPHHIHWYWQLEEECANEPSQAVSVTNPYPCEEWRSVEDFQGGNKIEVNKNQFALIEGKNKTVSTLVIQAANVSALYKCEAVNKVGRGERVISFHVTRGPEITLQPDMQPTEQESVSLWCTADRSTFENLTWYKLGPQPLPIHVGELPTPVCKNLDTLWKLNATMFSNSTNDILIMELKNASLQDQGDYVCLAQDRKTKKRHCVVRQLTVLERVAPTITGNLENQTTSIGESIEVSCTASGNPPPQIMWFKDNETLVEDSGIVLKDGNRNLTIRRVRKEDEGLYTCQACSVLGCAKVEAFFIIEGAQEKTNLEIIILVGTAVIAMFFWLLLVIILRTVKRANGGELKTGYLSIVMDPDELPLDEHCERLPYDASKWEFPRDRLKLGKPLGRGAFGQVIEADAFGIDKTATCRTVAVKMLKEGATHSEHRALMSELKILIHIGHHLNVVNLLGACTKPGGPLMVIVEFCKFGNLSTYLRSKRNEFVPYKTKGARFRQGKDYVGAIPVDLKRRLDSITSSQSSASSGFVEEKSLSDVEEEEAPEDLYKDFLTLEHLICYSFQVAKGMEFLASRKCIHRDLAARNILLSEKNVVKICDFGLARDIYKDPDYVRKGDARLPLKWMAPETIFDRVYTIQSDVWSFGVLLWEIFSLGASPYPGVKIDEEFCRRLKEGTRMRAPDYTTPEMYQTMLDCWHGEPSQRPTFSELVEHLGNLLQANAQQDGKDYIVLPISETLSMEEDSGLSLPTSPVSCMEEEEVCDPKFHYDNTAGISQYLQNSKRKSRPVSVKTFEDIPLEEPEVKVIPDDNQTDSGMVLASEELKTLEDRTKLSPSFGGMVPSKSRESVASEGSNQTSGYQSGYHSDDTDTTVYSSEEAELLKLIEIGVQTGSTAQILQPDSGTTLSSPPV

| inhibiting binding of VEGF to the KDR receptor (in words) (KDR receptor (VEGFR2); CHOm VEGFR2 cells) | Compound | IC50 (KDR receptor (VEGFR2)) [µM] | also measured |
| --- | --- | --- | --- |
| – | H-QIMRIKPHQGQHIG-OH [Peptide P5] | > 300 | – |
| – | CC[C@H](C)[C@@H]1NC(=O)[C@H](CCCNC(=N)N)NC(=O)[C@H](CCSC)NC(=O)[C@H]([C@@H](C)CC)NC(=O)[C@@H]2CCCN2C(=O)[C@@H](Cc2ccccc2)NC(=O)[C@H]([C@@H](C)CC)NC(=O)[C@H](Cc2c[nH]cn2)NC(=O)[C@H](CCC(N)=O)NC(=O)CNC(=O)[C@H](CCC(N)=O)NC(=O)[C@H](Cc2c[nH]cn2)NC(=O)[C@@H]2CCCN2C(=O)[C@H](CCCCN)NC1=O [Peptide P21] (cyclo(GQHI[dF]PIMRIKPHQ)) | 200 | – |
| – | CC[C@H](C)[C@@H]1NC(=O)[C@H](CCC(N)=O)NC(=O)[C@H](CCC(=O)O)NC(=O)[C@H](CCC(N)=O)NC(=O)[C@H](Cc2c[nH]cn2)NC(=O)[C@@H]2CCCN2C(=O)[C@H](CCCCN)NC(=O)[C@H]([C@@H](C)CC)NC(=O)[C@H](CCCNC(=N)N)NC(=O)[C@H](CCSC)NC1=O [Peptide P22, reference compound] (cyclo(EQIMRIKPHQ)) | > 300 | – |
| very effective | CC[C@H](C)[C@@H]1NC(=O)[C@H](Cc2c[nH]cn2)NC(=O)[C@H](CCC(N)=O)NC(=O)CNC(=O)[C@H](CCC(N)=O)NC(=O)[C@H](Cc2c[nH]cn2)NC(=O)[C@@H]2CCCN2C(=O)[C@H](CCCCN)NC(=O)[C@H]([C@@H](C)CC)NC(=O)[C@H](CCCNC(=N)N)NC(=O)[C@H](CCSC)NC(=O)[C@H]([C@@H](C)CC)NC(=O)[C@H](CCC(N)=O)NC(=O)[C@@H]2CCCN2C(=O)[C@@H](Cc2ccccc2)NC(=O)[C@H](CCC(=O)O)NC(=O)CNC1=O [Peptide P11] (cyclo([dF]PQIMRIKPHQGQHIGE)) | – | inhibition of cellular migration (in words) (endothelial cells [1]): strongly inhibits; inhibition of cellular proliferation (in words) (endothelial cells [2]): strong inhibition; inhibition of phosphorylation of p42/p44 (in words) (ERK2 (p42)): strongly inhibits |
| very effective | CC[C@H](C)[C@@H]1NC(=O)[C@H](CCCNC(=N)N)NC(=O)CNC(=O)[C@H](Cc2c[nH]cn2)NC(=O)[C@@H]2CCCN2C(=O)[C@H](CCCCN)NC1=O [Peptide P24, cyclo(Gly-Arg-Ile-Lys-Pro-His)] (cyclo(GRIKPH)) | – | IC50 (KDR receptor (VEGFR2); [3]): 8 µM |
| – | H-QIMRIKPHQGQHIGE-OH [Peptide P4] | > 300 | – |
| – | CC[C@H](C)[C@@H]1NC(=O)[C@H](Cc2c[nH]cn2)NC(=O)[C@H](CCC(N)=O)NC(=O)CNC(=O)[C@H](CCC(N)=O)NC(=O)[C@H](Cc2c[nH]cn2)NC(=O)[C@@H]2CCCN2C(=O)[C@H](CCCCN)NC(=O)[C@H]([C@@H](C)CC)NC(=O)[C@H](CCCNC(=N)N)NC(=O)[C@H](CCSC)NC(=O)[C@H]([C@@H](C)CC)NC(=O)[C@H](CCC(N)=O)NC(=O)[C@@H]2CCCN2C(=O)[C@H](CCC(=O)O)NC(=O)CNC1=O [Peptide P13] (cyclo(EPQIMRIKPHQGQHIG)) | > 300 | – |
| – | H-RIKPHQG-OH [Peptide P3, H-Arg-Ile-Lys-Pro-His-Gln-Gly-OH] | > 300 | – |
| – | C=CCOC(=O)[C@H](CCC(=O)O)NC(=O)CNC(=O)[C@@H](NC(=O)[C@H](Cc1c[nH]cn1)NC(=O)[C@H](CCC(N)=O)NC(=O)CNC(=O)[C@H](CCC(N)=O)NC(=O)[C@H](Cc1c[nH]cn1)NC(=O)[C@@H]1CCCN1C(=O)[C@H](CCCCN)NC(=O)[C@@H](NC(=O)[C@H](CCCNC(=N)N)NC(=O)[C@H](CCSC)NC(=O)[C@@H](NC(=O)[C@@H](N)CCC(N)=O)[C@@H](C)CC)[C@@H](C)CC)[C@@H](C)CC [Peptide P10] (H-QIMRIKPHQGQHIGE-OAll) | > 300 | – |
| very effective | CC[C@H](C)[C@@H]1NC(=O)[C@H](CCCNC(=N)N)NC(=O)[C@@H]2CCCN2C(=O)[C@@H](Cc2ccc(O)cc2)NC(=O)[C@H](CCC(N)=O)NC(=O)[C@H](Cc2c[nH]cn2)NC(=O)[C@@H]2CCCN2C(=O)[C@H](CCCCN)NC1=O [Peptide P23] (cyclo([dY]PRIKPHQ)) | – | – |
| – | H-QIMRIKPH-OH [Peptide P2] | > 300 | – |
| very effective | CC[C@H](C)[C@@H]1NC(=O)[C@H](Cc2c[nH]cn2)NC(=O)[C@H](CCC(N)=O)NC(=O)CNC(=O)[C@H](CCC(N)=O)NC(=O)[C@H](Cc2c[nH]cn2)NC(=O)[C@@H]2CCCN2C(=O)[C@H](CCCCN)NC(=O)[C@H]([C@@H](C)CC)NC(=O)[C@H](CCCNC(=N)N)NC(=O)[C@H](CCSC)NC(=O)[C@H]([C@@H](C)CC)NC(=O)[C@H](CCC(N)=O)NC(=O)[C@H](CCC(=O)O)NC(=O)CNC1=O [Peptide P19] (cyclo(QIMRIKPHQGQHIGE)) | – | – |
| – | CC[C@H](C)[C@@H]1NC(=O)[C@H](Cc2c[nH]cn2)NC(=O)[C@H](CCC(N)=O)NC(=O)CNC(=O)[C@H](CCC(N)=O)NC(=O)[C@H](Cc2c[nH]cn2)NC(=O)[C@@H]2CCCN2C(=O)[C@H](CCCCN)NC(=O)[C@H]([C@@H](C)CC)NC(=O)[C@H](CCCNC(=N)N)NC(=O)[C@H](CCSC)NC(=O)[C@H]([C@@H](C)CC)NC(=O)[C@H](CCC(N)=O)NC(=O)CNC(=O)[C@H](CCC(=O)O)NC(=O)CNC1=O [Peptide P12] (cyclo(EGQIMRIKPHQGQHIG)) | 300 | – |
| very effective | CC[C@H](C)[C@@H]1NC(=O)[C@H](CCCNC(=N)N)NC(=O)CNC(=O)[C@H](CCC(N)=O)NC(=O)[C@H](Cc2c[nH]cn2)NC(=O)[C@@H]2CCCN2C(=O)[C@H](CCCCN)NC1=O [Peptide P16, cyclo(Arg-Ile-Lys-Pro-His-Gln-Gly)] (cyclo(RIKPHQG)) | – | – |
| – | H-RIKPH-OH [Peptide P1, H-Arg-Ile-Lys-Pro-His-OH] | – | IC50 (KDR receptor (VEGFR2); [3]): > 300 µM |
| – | H-PQIMRIKPHQGQHIGE-OH [Peptide P14] | > 300 | – |
| – | CC[C@H](C)[C@@H]1NC(=O)[C@H](CCCNC(=N)N)NC(=O)CNC(=O)[C@H](Cc2c[nH]cn2)NC(=O)[C@H](CCC(N)=O)NC(=O)CNC(=O)[C@H](CCC(N)=O)NC(=O)[C@H](Cc2c[nH]cn2)NC(=O)[C@H]2CCCN2C(=O)[C@H](CCCCN)NC1=O [Peptide P7, cyclo(Gly-Arg-Ile-Lys-DPro-His-Gln-Gly-Gln-His)] (cyclo(GQHGRIK[dP]HQ)) | > 300 | – |
| – | CC[C@H](C)[C@H](NC(=O)[C@H](CCCNC(=N)N)NC(=O)CN)C(=O)N[C@@H](CCCCN)C(=O)N1CCC[C@@H]1C(=O)N[C@@H](Cc1c[nH]cn1)C(=O)N[C@@H](CCC(N)=O)C(=O)NCC(=O)N[C@@H](CCC(N)=O)C(=O)N[C@@H](Cc1c[nH]cn1)C(=O)O [Peptide P6, H-Gly-Arg-Ile-Lys-DPro-His-Gln-Gly-Gln-His-OH] (H-GRIK[dP]HQGQH-OH) | > 300 | – |
| – | H-GQIMRIKPHQGQHIGE-OH [Peptide P15] | > 300 | – |
| – | CC[C@H](C)[C@@H]1NC(=O)[C@H](CCCNC(=N)N)NC(=O)CNC(=O)[C@H](Cc2c[nH]cn2)NC(=O)CNC(=O)[C@H](CCC(N)=O)NC(=O)[C@H](Cc2c[nH]cn2)NC(=O)[C@@H]2CCCN2C(=O)[C@H](CCCCN)NC1=O [Peptide P8] (cyclo(GRIKPHQGH)) | – | IC50 (KDR receptor (VEGFR2); [3]): 200 µM |
| – | CC[C@H](C)[C@@H]1NC(=O)[C@H](CCCNC(=N)N)NC(=O)[C@@H]2CCCN2C(=O)[C@H](Cc2c[nH]cn2)NC(=O)[C@H](CCC(N)=O)NC(=O)CNC(=O)[C@H](CCC(N)=O)NC(=O)[C@H](Cc2c[nH]cn2)NC(=O)[C@@H]2CCCN2C(=O)[C@H](CCCCN)NC1=O [Peptide P9] (cyclo(GQHPRIKPHQ)) | 300 | – |

| Compound | inhibiting binding of VEGF to the KDR receptor (in words) (KDR receptor (VEGFR2); CHOm VEGFR2 cells) | IC50 (KDR receptor (VEGFR2)) [µM] | also measured |
| --- | --- | --- | --- |
| CC[C@H](C)[C@@H]1NC(=O)[C@H](CCCNC(=N)N)NC(=O)[C@@H]2CCCN2C(=O)CNC(=O)[C@H](CCC(N)=O)NC(=O)[C@H](Cc2c[nH]cn2)NC(=O)[C@@H]2CCCN2C(=O)[C@H](CCCCN)NC1=O [Peptide P17] (cyclo(PRIKPHQG)) | very effective | 10 | – |
| CC[C@H](C)[C@@H]1NC(=O)[C@H](Cc2c[nH]cn2)NC(=O)[C@H](CCC(N)=O)NC(=O)CNC(=O)[C@H](CCC(N)=O)NC(=O)[C@H](Cc2c[nH]cn2)NC(=O)[C@@H]2CCCN2C(=O)[C@H](CCCCN)NC(=O)[C@H]([C@@H](C)CC)NC(=O)[C@H](CCCNC(=N)N)NC(=O)[C@H](CCSC)NC(=O)[C@H]([C@@H](C)CC)NC(=O)[C@H](CCC(N)=O)NC(=O)[C@@H]2CCCN2C(=O)[C@@H](Cc2ccccc2)NC(=O)CNC1=O [Peptide P20] (cyclo([dF]PQIMRIKPHQGQHIG)) | very effective | 10 | – |
